Values after ≈ are worked out from the molar mass of the structure shown.
Legend:
Assay type in all cases: functional
KB = experiment: Cytotoxicity against human KB cells; settings: read-out: ID50 (the source's name)
P388 [1] = experiment: Cytotoxicity against mouse P388 cells; settings: read-out: ID50 (the source's name)
P388 [2] = experiment: In vivo antitumor activity against mouse P388 cells at 10 mg/kg, ip administered on 1,5 and 9 days relative to control; settings: route intraperitoneal
[3] = Cytotoxicity against human NSCLC-N6 cells; settings: read-out: ID50 (the source's name)
P388 [4] = experiment: In vivo antitumor activity against mouse P388 cells at 5 mg/kg, ip administered on 1,5 and 9 days relative to control; settings: route intraperitoneal

CC(=O)Oc1ccc(OC(C)=O)c(OC(C)=O)c1C/C=C(\C)CC/C=C(\C)CC/C=C(\C)CCC=C(C)C
IC50 (KB): 1.8 µg/mL (≈ 3.43 µM)

CC(=O)Oc1ccc(O)c(O)c1C/C=C(\C)CC/C=C(\C)CC/C=C(\C)CCC=C(C)C [TETRAPRENYLPHENOLSUILLIN]
IC50 (P388 [1]): 0.85 µg/mL (≈ 1.93 µM) | T/C (P388 [2]): 160% | IC50 [3]: 1.02 µg/mL (≈ 2.31 µM) | IC50 (KB): 0.69 µg/mL (≈ 1.57 µM) | T/C (P388 [4]): 151%

— ChEMBL document CHEMBL1147298, “An antitumor principle from Suillus granulatus” (1989)
